The values below are quoted from earlier work in article PMC12154426, “TPP-Based Nanovesicles Kill MDR Neuroblastoma Cells and Induce Moderate ROS Increase, While Exerting Low Toxicity Towards Primary Cell Cultures: An In Vitro Study” (International Journal of Molecular Sciences, 2025).

Where two headings read alike, the source gives them in different places.

One series concerns A-375 cancer cells. Details: method as in PMID 28151482. Conditions: 24 h exposure; 30 µM vemurafenib, 50 µM TRAM-34, or their combination; cited from earlier work.
On the set-up of series [1]: method as in PMID 36084362. Conditions: MFC-7, 24 h exposure, cited from earlier work.
A further series deals with Hela. Also noted: method as in PMID 36084362. Conditions: 24 h exposure, cited from earlier work.

As for `Clc1ccccc1C(c1ccccc1)(c1ccccc1)n1cccn1` [TRAM-34], the “ROS increase with respect to the control” value in the series on A-375 cancer cells was about 30%.
As for “2,9,16,23-tetrakis(N-(N-butyl-4-triphenyl-phosphonium)-pyridine-4-yloxy) Zn(II) Pc [compound 3]”, the IC50 in series [1] (PDT/SDT) is 13.2 µM; in series [1] (PDT), 43.3 µM; in series [1] (SDT) it was 18.2 µM; with Hela (PDT/SDT), 12.7 µM; in the series with Hela (PDT), 21.8 µM; with Hela (SDT), 14.3 µM.
For the compound “2,9,16,23-tetrakis-(N-(N-butyl-4-triphenyl-phosphonium)-morpholino) Zn(II) Pc [compound 4]”, the IC50 in series [1] (PDT/SDT) is 15.5 µM; in series [1] (PDT), 45 µM; in series [1] (SDT), 20.5 µM; in the series on Hela (PDT/SDT), 14.4 µM; in the series on Hela (PDT) it was 25.6 µM; in the series with Hela (SDT) it was 17.2 µM.
For the compound `CCCS(=O)(=O)Nc1ccc(F)c(C(=O)c2c[nH]c3ncc(-c4ccc(Cl)cc4)cc23)c1F` [vemurafenib], in the series with A-375 cancer cells, the “ROS increase with respect to the control” value is listed as “about 38%”.
